Experimental data: PubChem BioAssay AID256 (DTP/NCI, 2004)
Inconclusive results and toxic doses are left out.

System: CD2F1 mice, L1210 leukemia ip, survival T/C
Test: NCI In Vivo Anticancer Drug Screen. Data for tumor model L1210 Leukemia (intraperitoneal) in CD2F1 (CDF1) mice
Conditions: higher = longer survival
Summary of the method: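 Tumor-bearing mice (transplanted tumor) were split into treated and vehicle control groups, and the measured endpoint of each treated group was divided by that of its vehicle controls.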

[1] = endpoint: mean survival time, dose: 50.0 mg/kg/injection, schedule: Q01DX009 (ip), vehicle: Klucel (hydroxypropylcellulose) (HPC)
[2] = endpoint: mean survival time, dose: 50.0 mg/kg/injection, schedule: Q01DX009 (ip), vehicle: saline with Tween-80
[3] = endpoint: mean survival time, dose: 100.0 mg/kg/injection, schedule: Q01DX009 (ip), vehicle: Klucel (hydroxypropylcellulose) (HPC)
[4] = endpoint: mean survival time, dose: 100.0 mg/kg/injection, schedule: Q04DX003 (ip), vehicle: saline with Tween-80
[5] = endpoint: mean survival time, dose: 200.0 mg/kg/injection, schedule: Q04DX003 (ip), vehicle: saline with Tween-80
[6] = endpoint: mean survival time, dose: 400.0 mg/kg/injection, schedule: Q04DX003 (ip), vehicle: saline with Tween-80
[7] = endpoint: mean survival time, dose: 100.0 mg/kg/injection, schedule: Q01DX009 (ip), vehicle: saline with Tween-80
[8] = endpoint: mean survival time, dose: 200.0 mg/kg/injection, schedule: Q01DX009 (ip), vehicle: saline with Tween-80

For `Nc1nc(N)c(-c2ccc(Cl)c(Cl)c2)c(CP(Cl)(Cl)(Cl)Br)n1`, the T/C (endpoint: mean survival time, dose: 12.5 mg/kg/injection, schedule: Q01DX009 (ip), vehicle: Klucel (hydroxypropylcellulose) (HPC)) was 100 % of control, the T/C (endpoint: mean survival time, dose: 25.0 mg/kg/injection, schedule: Q01DX009 (ip), vehicle: Klucel (hydroxypropylcellulose) (HPC)) was 94 % of control and the T/C [1] was 102 % of control. For the same compound, the T/C [2] was 160 % of control, the T/C (endpoint: mean survival time, dose: 100.0 mg/kg/injection, schedule: Q01DX001 (ip), vehicle: saline with Tween-80) was 98 % of control and the T/C [3] was 88 % of control. For the same compound, the T/C (endpoint: mean survival time, dose: 100.0 mg/kg/injection, schedule: Q04DX002 (ip), vehicle: saline with Tween-80) was 94 % of control, the T/C [4] was 95 % of control and the T/C (endpoint: mean survival time, dose: 200.0 mg/kg/injection, schedule: Q01DX001 (ip), vehicle: saline with Tween-80) was 90 % of control. The T/C (endpoint: mean survival time, dose: 200.0 mg/kg/injection, schedule: Q04DX002 (ip), vehicle: saline with Tween-80) was 107 % of control, the T/C [5] was 100 % of control and the T/C (endpoint: mean survival time, dose: 400.0 mg/kg/injection, schedule: Q01DX001 (ip), vehicle: saline with Tween-80) was 105 % of control. For the same compound, the T/C (endpoint: mean survival time, dose: 400.0 mg/kg/injection, schedule: Q04DX002 (ip), vehicle: saline with Tween-80) was 100 % of control.
With `O=C(CCOP(=O)(N1CC1)N1CC1)OCc1ccccc1` the T/C (endpoint: mean survival time, dose: 2.0 mg/kg/injection, schedule: Q01DX009 (ip), vehicle: water) was 101 % of control, the T/C (endpoint: mean survival time, dose: 3.9 mg/kg/injection, schedule: Q01DX001 (ip), vehicle: Klucel (hydroxypropylcellulose) (HPC)) was 89 % of control and the T/C (endpoint: mean survival time, dose: 4.0 mg/kg/injection, schedule: Q01DX009 (ip), vehicle: water) was 98 % of control. The T/C (endpoint: mean survival time, dose: 7.8 mg/kg/injection, schedule: Q01DX001 (ip), vehicle: Klucel (hydroxypropylcellulose) (HPC)) was 102 % of control, the T/C (endpoint: mean survival time, dose: 8.0 mg/kg/injection, schedule: Q01DX009 (ip), vehicle: water) was 104 % of control and the T/C (endpoint: mean survival time, dose: 15.6 mg/kg/injection, schedule: Q01DX001 (ip), vehicle: Klucel (hydroxypropylcellulose) (HPC)) was 98 % of control. For the same compound, the T/C (endpoint: mean survival time, dose: 16.0 mg/kg/injection, schedule: Q01DX009 (ip), vehicle: water) was 106 % of control, the T/C (endpoint: mean survival time, dose: 31.2 mg/kg/injection, schedule: Q01DX001 (ip), vehicle: Klucel (hydroxypropylcellulose) (HPC)) was 88 % of control and the T/C (endpoint: mean survival time, dose: 32.0 mg/kg/injection, schedule: Q01DX009 (ip), vehicle: water) was 118 % of control.
`CC(=O)Nc1ccc2c(c1)Cc1cc(NC(C)=O)c(Cl)cc1-2` was tested, and the T/C [4] was 103 % of control, the T/C [5] was 97 % of control and the T/C [6] was 98 % of control.
`O=Nn1c2ccccc2c2ccccc21` was tested, and the T/C [1] was 90 % of control, the T/C [3] was 98 % of control and the T/C (endpoint: mean survival time, dose: 200.0 mg/kg/injection, schedule: Q01DX009 (ip), vehicle: Klucel (hydroxypropylcellulose) (HPC)) was 102 % of control.
`COc1ccc(/C=N\O)cc1OC` was tested, and the T/C [4] was 101 % of control, the T/C [5] was 98 % of control and the T/C [6] was 87 % of control.
In the case of `CC1(C)N=C(N)N=C(N)N1c1ccc(OCCOc2ccc(NC(=O)CBr)cc2)cc1`, the T/C (endpoint: mean survival time, dose: 176.0 mg/kg/injection, schedule: Q01DX006 (ip), vehicle: other) is reported as 118 % of control, the T/C (endpoint: mean survival time, dose: 266.0 mg/kg/injection, schedule: Q01DX006 (ip), vehicle: other) is reported as 124 % of control and the T/C (endpoint: mean survival time, dose: 600.0 mg/kg/injection, schedule: Q01DX006 (ip), vehicle: other) is reported as 94 % of control.
In the case of `ClC(Cl)(Cl)C1CCC(Br)C2CCCCC21` (centres undefined), the T/C [4] is reported as 92 % of control, the T/C [5] is reported as 100 % of control and the T/C [6] is reported as 96 % of control.
With `OCC1C2C=CC1CC2` (centres undefined) the T/C [4] was 95 % of control, the T/C [5] was 96 % of control and the T/C [6] was 96 % of control.
`CC1OC(n2cnc3c(NC(=O)c4ccccc4)ncnc32)C(O)C2OC12` (centres undefined) was tested, and the T/C (endpoint: median survival time, dose: 12.5 mg/kg/injection, schedule: Q01DX005 (ip), vehicle: alkali diluted with water) was 106 % of control, the T/C (endpoint: median survival time, dose: 25.0 mg/kg/injection, schedule: Q01DX005 (ip), vehicle: alkali diluted with water) was 102 % of control and the T/C (endpoint: median survival time, dose: 50.0 mg/kg/injection, schedule: Q01DX005 (ip), vehicle: alkali diluted with water) was 108 % of control. The T/C (endpoint: median survival time, dose: 100.0 mg/kg/injection, schedule: Q01DX005 (ip), vehicle: alkali diluted with water) was 100 % of control and the T/C (endpoint: median survival time, dose: 200.0 mg/kg/injection, schedule: Q01DX005 (ip), vehicle: alkali diluted with water) was 101 % of control.
For `CC(=O)Nc1nnc(SCc2ccccc2)s1`, the T/C [7] was 100 % of control, the T/C [4] was 92 % of control and the T/C [8] was 96 % of control. The T/C [5] was 89 % of control, the T/C (endpoint: mean survival time, dose: 400.0 mg/kg/injection, schedule: Q01DX009 (ip), vehicle: saline with Tween-80) was 100 % of control and the T/C [6] was 89 % of control.
`COc1cc(OC)c(NC(=O)Oc2ccccc2F)cc1Cl` was tested, and the T/C [2] was 92 % of control, the T/C [7] was 100 % of control and the T/C [8] was 100 % of control.
`N/N=C(\C(=N\N)c1ccccc1)c1ccccc1` was tested, and the T/C [4] was 95 % of control, the T/C [5] was 93 % of control and the T/C [6] was 89 % of control.
`CCSc1ncnc2c1ncn2C1OC(CO)C(O)C1O` (centres undefined) was tested, and the T/C (endpoint: mean survival time, dose: 132.0 mg/kg/injection, schedule: Q04DX003 (ip), vehicle: saline with Tween-80) was 122 % of control and the T/C [8] was 171 % of control.
